We go through 14 molecules from ChEMBL document CHEMBL1149545, “Thyroid receptor ligands. Part 8: Thyromimetics derived from N-acylated-alpha-amino acid derivatives displaying modulated pharmacological selectivity compared with KB-141” (Bioorg Med Chem Lett, 2007).

In general, IC50 refers to the point on the concentration scale where inhibition reaches its midpoint. For orientation: EC50 means the concentration needed to bring the measured effect to its halfway point. A word on the ED50: it is the dose that gives a 50% effect, or the effect in half of the subjects.

One experiment is filed under the species Homo sapiens. The experiment is described as follows: Selectivity ratio of IC50 for thyroid hormone receptor alpha-1 to IC50 for thyroid hormone receptor beta-1.
The target in experiment [1] is T1, Thyroid hormone receptor alpha (Homo sapiens, UniProt P10827).
T1 sequence (P10827 whole entry): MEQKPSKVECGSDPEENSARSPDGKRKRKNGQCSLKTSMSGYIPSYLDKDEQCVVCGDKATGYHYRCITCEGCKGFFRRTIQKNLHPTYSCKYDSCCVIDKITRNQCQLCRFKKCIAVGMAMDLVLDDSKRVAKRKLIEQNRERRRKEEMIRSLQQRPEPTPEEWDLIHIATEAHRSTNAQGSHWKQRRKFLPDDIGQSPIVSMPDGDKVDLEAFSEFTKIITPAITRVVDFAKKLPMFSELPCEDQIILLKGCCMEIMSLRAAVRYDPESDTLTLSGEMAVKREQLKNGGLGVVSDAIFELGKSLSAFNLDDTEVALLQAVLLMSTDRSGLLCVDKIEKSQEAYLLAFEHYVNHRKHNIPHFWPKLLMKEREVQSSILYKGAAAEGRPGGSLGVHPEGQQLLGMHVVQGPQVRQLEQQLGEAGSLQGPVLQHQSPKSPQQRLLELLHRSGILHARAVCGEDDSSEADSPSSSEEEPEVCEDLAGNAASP
Kind of experiment: biochemical.
Description: Binding affinity at human thyroid hormone receptor alpha 1 expressed in CHOK1 cells

Experiment [2] concerns the target T2, Thyroid hormone receptor beta (Homo sapiens, UniProt P10828).
T2 sequence (P10828 whole entry): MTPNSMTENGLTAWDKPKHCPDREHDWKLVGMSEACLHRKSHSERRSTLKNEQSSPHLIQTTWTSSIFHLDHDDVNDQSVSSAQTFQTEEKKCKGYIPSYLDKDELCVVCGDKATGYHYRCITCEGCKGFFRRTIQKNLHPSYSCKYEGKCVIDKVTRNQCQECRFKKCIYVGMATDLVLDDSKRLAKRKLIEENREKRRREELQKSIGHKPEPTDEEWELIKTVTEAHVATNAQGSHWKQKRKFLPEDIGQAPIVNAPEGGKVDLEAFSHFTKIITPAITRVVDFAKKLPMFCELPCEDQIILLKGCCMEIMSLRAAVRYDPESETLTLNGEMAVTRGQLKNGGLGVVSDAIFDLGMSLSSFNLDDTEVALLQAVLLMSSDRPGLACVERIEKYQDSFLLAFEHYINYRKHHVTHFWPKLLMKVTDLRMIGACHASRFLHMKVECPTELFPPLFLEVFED
Kind of experiment: biochemical.
Description: Binding affinity at human thyroid hormone receptor beta-1 expressed in CHOK1 cells

Experiment [3] can be described thus: cells. Conditions: Homo sapiens, CHO-K1.
Description: (§1) Activity against TRAFbeta expressed in CHOK1 cells by alkaline phosphatse reporter gene assay
Experiment [4] has as its system CHO-K1. Conditions: Homo sapiens.
Description: as §1
The subject of experiment [5] is CHO-K1. Conditions: Homo sapiens. The source holds these as a separate data set.
Description: (§2) Activity against TRAF-alpha-1 expressed in CHOK1 cells by alkaline phosphatase reporter gene assay
The nature of experiment [6]: cells. Conditions: Homo sapiens, CHO-K1. This is another data set of the same source.
Description: as §2
The subject of experiment [7] is Rattus norvegicus. The experiment is described as follows: Decrease in TSH in po dosed cholesterol-fed rat. Format: functional.
Experiment [8] relates to Rattus norvegicus. Kind of experiment: Decrease in cholesterol in po dosed cholesterol-fed rat. Format: functional.
Experiment [9] has as its system Rattus norvegicus. Kind of experiment: Increase in heart rate in po dosed cholesterol-fed rat. Format: functional.
For experiment [10], the species on record is Rattus norvegicus. The experiment is described as follows: Ratio of ED30 for TSH in cholesterol-fed rat to ED50 for cholesterol level in cholesterol-fed rat. The format is functional.
The species entered for experiment [11] is Rattus norvegicus. The experiment is described as follows: Ratio of ED15 for heart rate in cholesterol-fed rat to ED50 for cholesterol level in cholesterol-fed rat. Format: functional.

Turning to `CC(C)c1cc(Oc2c(Br)cc(CC(=O)NCC(=O)O)cc2Br)ccc1O`, the Ratio IC50 in the experiment filed under Homo sapiens is 5.9. The figures for the half-maximal inhibitory concentration (IC50) in [1] and in experiment [2] were 0.026 µM and 0.0027 µM, respectively. In addition, the EC50 worked out at 0.042 µM in “cells [3]” and 0.103 µM in the experiment “cells [6]”. Further, the Activity with CHO-K1 [4] turned out to be 85%; with CHO-K1 [5], 75%.

Take `CC(C)c1cc(Oc2c(Br)cc(CC(=O)N[C@H](C)C(=O)O)cc2Br)ccc1O`: the Ratio IC50 in the experiment filed under Homo sapiens amounted to 8.3. The IC50 is 0.083 µM in experiment [1] and 0.0059 µM in experiment [2]. The EC50 was 0.0076 µM in the experiment “cells [3]” and 0.015 µM in the experiment “cells [6]”. The Activity in the experiment with CHO-K1 [4] is 100%; in the experiment with CHO-K1 [5], 83%.

Turning to `CC(C)c1cc(Oc2c(Br)cc(CC(=O)N[C@H](C(=O)O)C(C)C)cc2Br)cc(F)c1O`, the Ratio IC50 in the experiment listed under Homo sapiens amounted to 4.3. The figures for the IC50 in experiment [1] and in [2] were 0.088 µM and 0.012 µM, respectively. Besides, the results for the EC50 in “cells [3]” and in the experiment “cells [6]” were 0.011 µM and 0.017 µM, respectively. Further, the Activity in the experiment with CHO-K1 [4] worked out at 88%; in the experiment with CHO-K1 [5] it was 78%.

For the molecule `CC(C)c1cc(Oc2c(Br)cc(CC(=O)N[C@H](C(=O)O)C(C)C)cc2Br)cc(Cl)c1O`, the Ratio IC50 in the experiment filed under Homo sapiens stood at 0.29. Besides, the IC50 came out at 0.67 µM in experiment [1] and 1.4 µM in experiment [2]. Further, the EC50 in the experiment “cells [3]” turned out to be 0.21 µM; in “cells [6]” it was 0.065 µM. The Activity with CHO-K1 [4] came out at 31%; with CHO-K1 [5], 21%.

As for `CC(C)c1cc(Oc2c(Cl)cc(CC(=O)O)cc2Cl)ccc1O`, the ED30 in the experiment on Rattus norvegicus [7] is on record as 32 nmol/kg/day. Also, in the experiment with Rattus norvegicus [8], the ED50 was found to be 72 nmol/kg/day. In the experiment with Rattus norvegicus [9], the ED15 is 2900 nmol/kg/day.

Turning to `CC(C)c1cc(Oc2c(Br)cc(CC(=O)N[C@@H](CC(=O)O)C(=O)O)cc2Br)ccc1O`, the Ratio IC50 in the experiment filed under Homo sapiens stood at 0.9. The IC50 in experiment [1] was 0.46 µM; in [2], 0.29 µM. The EC50 in “cells [3]” was found to be 1.3 µM; in the experiment “cells [6]”, 1.5 µM. Also, the Activity with CHO-K1 [4] was 84%; in the experiment with CHO-K1 [5], 72%.

Turning to `CC(C)c1cc(Oc2c(Br)cc(CC(=O)N[C@@H](C)C(=O)O)cc2Br)ccc1O`, the Ratio IC50 in the experiment filed under Homo sapiens came to 4.5. Moreover, the IC50 was 0.01 µM in [1] and 0.0013 µM in experiment [2]. Moreover, the EC50 was found to be 0.0026 µM in the experiment “cells [3]” and 0.0072 µM in “cells [6]”. The figures for the Activity in the experiment with CHO-K1 [4] and with CHO-K1 [5] were 92% and 81%, respectively.

On to `CC(C)c1cc(Oc2c(Br)cc(CC(=O)N[C@@H](C(=O)O)c3ccccc3)cc2Br)ccc1O`, for which the Ratio IC50 in the experiment filed under Homo sapiens was 6. Moreover, the IC50 in [1] is 0.0055 µM; in experiment [2] it was 0.0006 µM. Moreover, the EC50 was 0.00073 µM in “cells [3]” and 0.0015 µM in the experiment “cells [6]”. Besides, the figures for the Activity in the experiment on CHO-K1 [4] and with CHO-K1 [5] were 85% and 65%, respectively.

Consider `CC(C)c1cc(Oc2c(Br)cc(CC(=O)N[C@H](C(=O)O)c3ccccc3)cc2Br)ccc1O`, for which the Ratio IC50 in the experiment filed under Homo sapiens is 5.7. The IC50 in [1] worked out at 0.0075 µM; in experiment [2], 0.00078 µM.

For the molecule `CC(C)c1cc(Oc2c(Br)cc(CC(=O)N[C@H](C(=O)O)C(C)C)cc2Br)ccc1O`, the Ratio in the experiment listed under Rattus norvegicus [10] is on record as 3; in the experiment listed under Rattus norvegicus [11] it was 19. The same molecule came in with an ED30 in the experiment on Rattus norvegicus [7] of 242 nmol/kg/day. In addition, the Ratio IC50 in the experiment filed under Homo sapiens was 9.4. In addition, the IC50 amounted to 0.0043 µM in [1] and 0.00027 µM in experiment [2]. The molecule also yielded an ED50 in the experiment on Rattus norvegicus [8] of 82 nmol/kg/day. For the same molecule, the concentration giving a half-maximal response (EC50) in the experiment “cells [3]” was found to be 0.00077 µM; in the experiment “cells [6]” it was 0.0014 µM. The Activity in the experiment on CHO-K1 [4] was 92%; in the experiment on CHO-K1 [5] it was 78%. For the same molecule, in the experiment on Rattus norvegicus [9], the ED15 was found to be 1580 nmol/kg/day.

Consider `CC(C)c1cc(Oc2c(Br)cc(CC(=O)N[C@@H](C(=O)O)C(C)C)cc2Br)ccc1O`, for which the Ratio IC50 in the experiment listed under Homo sapiens is 8.2. Moreover, the IC50 in experiment [1] amounted to 0.0098 µM; in experiment [2], 0.00071 µM. Moreover, the half-maximal effective concentration (EC50) in the experiment “cells [3]” was 0.0012 µM; in the experiment “cells [6]” it was 0.0023 µM. The values for the Activity with CHO-K1 [4] and in the experiment with CHO-K1 [5] were 100% and 88%, respectively.

Take `N[C@@H](Cc1cc(I)c(Oc2ccc(O)c(I)c2)c(I)c1)C(=O)O` [LIOTHYRONINE]: the ED30 with Rattus norvegicus [7] is 6.7 nmol/kg/day. Moreover, the ED50 with Rattus norvegicus [8] came out at 21 nmol/kg/day. In the experiment with Rattus norvegicus [9], this molecule yielded an ED15 of 31 nmol/kg/day.

Consider `CC(C)c1cc(Oc2c(Br)cc(CC(=O)N[C@H](CC(=O)O)C(=O)O)cc2Br)ccc1O`, for which the Ratio IC50 in the experiment filed under Homo sapiens is 3.8. Besides, the IC50 in experiment [1] is 0.168 µM; in experiment [2], 0.026 µM. The EC50 in “cells [3]” was found to be 0.038 µM; in “cells [6]”, 0.066 µM. Further, the Activity in the experiment on CHO-K1 [4] was determined as 88%; in the experiment on CHO-K1 [5], 74%.

For the molecule `Cc1cc(Oc2c(Br)cc(CC(=O)N[C@H](C(=O)O)C(C)C)cc2Br)cc(C(C)C)c1O`, the Ratio IC50 in the experiment listed under Homo sapiens was determined as 0.34. The IC50 in experiment [1] was 1.5 µM; in [2] it was 2.6 µM. The EC50 is 1.1 µM in the experiment “cells [3]” and 0.17 µM in “cells [6]”. Further, the Activity is 27% in the experiment on CHO-K1 [4] and 13% in the experiment on CHO-K1 [5].
